Laboratory results from the supplement of paper PMC11451515.

System: NOMO1
Experiment: cell viability relative to DMSO control; higher = less cytotoxic
Details: 48 h
Method in brief: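 Viability values are per-plate percentages of DMSO wells, with background from cell-free wells. Library compounds in DMSO were pin-dosed, in an 11-point threefold series from 47 μM to 0.79 nM, onto NOMO1 or SEM (500 cells/well) or P12-Ichikawa (1000 cells/well) leukemia cells in 1536-well plates (5 μl). Those cells had been adapted for at least four passages in each medium, and CellTiter-Glo One luminescence was read after 48 h at 37°C.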

[1] = RPMI 5 mM glucose + 10% FBS, 0.000781 µM
[2] = RPMI 5 mM glucose + 10% FBS, 0.00234 µM
[3] = RPMI 5 mM glucose + 10% FBS, 0.00702 µM
[4] = RPMI 5 mM glucose + 10% FBS, 0.0211 µM
[5] = RPMI 5 mM glucose + 10% FBS, 0.0632 µM
[6] = RPMI 5 mM glucose + 10% FBS, 0.19 µM
[7] = RPMI 5 mM glucose + 10% FBS, 0.569 µM
[8] = RPMI 5 mM glucose + 10% FBS, 1.71 µM
[9] = RPMI 5 mM glucose + 10% FBS, 5.12 µM
[10] = RPMI 5 mM glucose + 10% FBS, 15.4 µM
[11] = RPMI 5 mM glucose + 10% FBS, 46.1 µM
[12] = RPMI 5 mM glucose + 10% dialyzed FBS, 0.000781 µM
[13] = RPMI 5 mM glucose + 10% dialyzed FBS, 0.00234 µM
[14] = RPMI 5 mM glucose + 10% dialyzed FBS, 0.00702 µM
[15] = RPMI 5 mM glucose + 10% dialyzed FBS, 0.0211 µM
[16] = RPMI 5 mM glucose + 10% dialyzed FBS, 0.0632 µM
[17] = RPMI 5 mM glucose + 10% dialyzed FBS, 0.19 µM
[18] = RPMI 5 mM glucose + 10% dialyzed FBS, 0.569 µM
[19] = RPMI 5 mM glucose + 10% dialyzed FBS, 1.71 µM
[20] = RPMI 5 mM glucose + 10% dialyzed FBS, 5.12 µM
[21] = RPMI 5 mM glucose + 10% dialyzed FBS, 15.4 µM
[22] = RPMI 5 mM glucose + 10% dialyzed FBS, 46.1 µM
[23] = HPLM + 10% dialyzed FBS, 0.000781 µM
[24] = HPLM + 10% dialyzed FBS, 0.00234 µM
[25] = HPLM + 10% dialyzed FBS, 0.00702 µM
[26] = HPLM + 10% dialyzed FBS, 0.0211 µM
[27] = HPLM + 10% dialyzed FBS, 0.0632 µM
[28] = HPLM + 10% dialyzed FBS, 0.19 µM
[29] = HPLM + 10% dialyzed FBS, 0.569 µM
[30] = HPLM + 10% dialyzed FBS, 1.71 µM
[31] = HPLM + 10% dialyzed FBS, 5.12 µM
[32] = HPLM + 10% dialyzed FBS, 15.4 µM
[33] = HPLM + 10% dialyzed FBS, 46.1 µM

Compound	cell viability [1]	cell viability [2]	cell viability [3]	cell viability [4]	cell viability [5]	cell viability [6]	cell viability [7]	cell viability [8]	cell viability [9]	cell viability [10]	cell viability [11]	cell viability [12]	cell viability [13]	cell viability [14]	cell viability [15]	cell viability [16]	cell viability [17]	cell viability [18]	cell viability [19]	cell viability [20]	cell viability [21]	cell viability [22]	cell viability [23]	cell viability [24]	cell viability [25]	cell viability [26]	cell viability [27]	cell viability [28]	cell viability [29]	cell viability [30]	cell viability [31]	cell viability [32]	cell viability [33]
CC(C)(O)c1cc2nc(-c3cnc(N)nc3)nc(N3CCOCC3)c2s1	123%	121%	107%	121%	110%	104%	104%	88.7%	76.6%	63.1%	67.5%	121%	125%	114%	105%	98.2%	85.8%	83.3%	60.8%	53.4%	46.8%	51.8%											
COc1cc(C(=O)NS(=O)(=O)c2ccccc2C)ccc1Cc1cn(C)c2ccc(NC(=O)OC3CCCC3)cc12	77.7%	86.9%	79.6%	80.1%	77.6%	86.5%	82.4%	87.6%	85.2%	80.4%	18.9%	68%	84.5%	76.4%	92.9%	88.8%	99.7%	83.5%	81.6%	86.1%	81.2%	6.79%	66.5%	66.3%	75.8%	91.5%	79.7%	77.8%	87.3%	87.3%	87.1%	83.8%	31.1%
CCOc1ccc(Cc2cc([C@@H]3O[C@H](CO)[C@@H](O)[C@H](O)[C@H]3O)ccc2Cl)cc1	114%	133%	124%	125%	138%	128%	128%	136%	124%	133%	129%																						
COc1cc(CNC(=O)CCCC/C=C/C(C)C)ccc1O	101%	99.6%	95%	115%	104%	114%	90.6%	45.9%	36.6%	41.1%	36.4%	102%	97.8%	103%	98.5%	106%	101%	99.5%	55.3%	52%	50.4%	59.7%	111%	116%	113%	123%	114%	112%	71.5%	77%	79.1%	60.9%	47.2%
NC(=O)NO	83.9%	90.8%	85.6%	88.7%	86.1%	90.2%	90.8%	94.6%	37.3%	10.4%	1.27%	81.9%	90.4%	92.6%	95.3%	98%	87.2%	91.1%	96%	33%	10%	1.29%	88.2%	102%	110%	110%	116%	100%	88.9%	84.9%	16.6%	3.7%	2.4%
C[C@H]1O[C@H](C[C@H](O)[C@@H]1O)O[C@H]2[C@@H](O)C[C@@H](O[C@@H]2C)O[C@H]3[C@@H](O)C[C@@H](O[C@@H]3C)O[C@H]4CC[C@@]5(C)[C@H](CC[C@@H]6[C@@H]5C[C@@H](O)[C@]7(C)[C@H](CC[C@]67O)C/8=C/C(=O)OC8)C4	113%	112%	120%	107%	107%	95.8%	21.9%	9.57%	11%	12.1%	9.59%	120%	121%	109%	115%	114%	57.2%	13.5%	7.93%	7.1%	7.81%	7.62%	120%	119%	136%	138%	97.2%	25.3%	12.2%	8.48%	8.1%	7.39%	5.28%
CCOC1=CC=CC=C1N\2C(=O)C3=C(C=CC=C3)\N=C2C(C)N4CCN(CC4)C(=O)COC5=CC=C(Cl)C=C5 (centres undefined)	116%	115%	132%	112%	131%	127%	119%	37.8%	10.4%	5.57%	3.82%																						
Cc1onc(-c2ccccc2)c1C(=O)N[C@@H]1C(=O)N2[C@@H]1SC(C)(C)[C@@H]2C(=O)[O-].[Na+]	112%	111%	117%	104%	112%	103%	101%	79.5%	77.7%	84.7%	56.8%	111%	109%	115%	114%	101%	97.4%	98.6%	88.9%	72.2%	67.1%	53.8%	120%	131%	105%	113%	134%	98.5%	95.5%	64.5%	77.8%	51.1%	54.7%
Cc1nc(Nc2n[nH]c3c2CN(C(=O)N[C@H](CN(C)C)c2ccccc2)C3(C)C)c2sccc2n1	82.6%	85%	91.1%	82.6%	71.8%	54.2%	53.2%	40.5%	38.7%	25.6%	2.97%	80.3%	86.9%	78.3%	72.6%	55.8%	58%	60.1%	38.9%	40.9%	31%	2.28%	89.4%	82.7%	70.7%	74.1%	65.7%	53.8%	54.3%	40.2%	41.2%	23.1%	2.58%
O.O.CCN1CCN(C(=O)N[C@H](C(=O)N[C@H]2[C@@H]3SC\C(=C(/N3C2=O)C(O)=O)CSC4=NN=N[N]4C)C5=CC=C(O)C=C5)C(=O)C1=O	81.4%	93.8%	88.5%	19.5%	95.2%	100%	111%	109%	101%	111%	113%	77.5%	92.9%	93.5%	32%	100%	96.1%	100%	101%	92.4%	102%	107%	77.3%	86.9%	106%	29.4%	106%	98.8%	110%	104%	101%	89.8%	115%
OC[C@H]1O[C@@H]2[C@@H](OC\3=N\C(=N)\C=C/[N@@]23)[C@@H]1O	119%	122%	112%	111%	119%	125%	130%	103%	33.7%	22%	8.44%	116%	122%	120%	106%	118%	125%	90.5%	67.1%	23.3%	16.8%	9.9%	103%	129%	125%	114%	130%	129%	109%	62.6%	30.4%	19.8%	6.81%
CCN1CCCC1CNC(=O)c1cc([S+](N)(=O)[O-])ccc1OC (centres undefined)	120%	113%	102%	103%	123%	106%	118%	120%	119%	117%	105%	111%	126%	106%	125%	115%	139%	131%	134%	122%	126%	129%	104%	117%	127%	127%	142%	128%	111%	117%	140%	121%	78%
CCN1CCN(C(=O)Cc2ccc(Nc3ncc(F)c(Nc4ccc(C(=O)Nc5ccccc5Cl)cc4)n3)cc2)CC1	99.6%	98.1%	98%	92.7%	111%	121%	101%	90.7%	81.2%	47.1%	59.4%	97.5%	109%	104%	117%	107%	103%	114%	103%	64.9%	55.8%	49%	93.9%	119%	112%	115%	112%	114%	109%	109%	62.6%	62.4%	49.1%
COc1cc(N2CCC(N(C)C)CC2)ccc1Nc1ncc(Cl)c(Nc2ccccc2P(C)(C)=O)n1	123%	116%	130%	118%	124%	115%	111%	102%	21.3%	23.8%	23.2%	115%	110%	128%	117%	123%	124%	107%	94.7%	31.4%	21.3%	27.6%											
Cc1ncc([N+](=O)[O-])n1CC(C)O (centres undefined)	100%	123%	106%	106%	113%	118%	132%	117%	117%	105%	113%	101%	107%	95.3%	96.4%	113%	116%	110%	110%	115%	115%	101%	96.1%	100%	117%	114%	119%	110%	111%	116%	117%	120%	108%
